# Results taken from patent US11076594B2, “Pyrazolone compound or salt thereof, preparation method therefor, herbicide composition and use thereof” (QINGDAO KINGAGROOT CHEMICAL COMPOUNDS CO., LTD., priority 2015, dated 2021).
# Columns and labels:
# Type in all cases: in vivo
# [1] = system: rice; assay: post-emergence stage experiment, crop (Table 1); set-up: key: Level 10: completely dead; Level 9: above 95% growth control rate; Level 8: above 90% growth control rate; Level 7: above 80% growth control rate; Level 6: above 70% growth control rate; Level 5: above 60% growth control rate; Level 4: above 50% growth control rate; Level 3: above 20% growth control rate; Level 2: 5%-20% growth control rate; Level 1: below 5% growth control rate; settings: post-emergence spray at 4-5 leaf stage, 250 g/ha active ingredient with 450 kg/ha water, rated after 3 weeks in greenhouse
# Procedure, shortened: (§1)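 Greenhouse pot test; foliar spray at 4-5 leaf stage; acetone + Tween 80 + water formulation; 3 wk post-treatment fresh-weight control rate.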
# [2] = system: wheat; assay: wheat field test, crop selectivity, greenhouse spray at 4 leaf stage; settings: 250 g/ha of the active substance; 4 weeks after treatment
# Procedure, shortened: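 After sowing in pots under 0.5-2 cm soil, plants grow to the 4 leaf stage and receive a spray of compound formulated in acetone, methyl oleate emulsion and water. Four weeks later in the greenhouse, the fresh weight control rate gives the growth control rate.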
# [3] = system: shepherd's purse; assay: wheat field resistant broadleaf weed control, greenhouse spray at 4 leaf stage; set-up: key: Level 10: completely dead; Level 9: above 95% growth control rate; Level 8: above 90% growth control rate; Level 7: above 80% growth control rate; Level 6: above 70% growth control rate; Level 5: above 60% growth control rate; Level 4: above 50% growth control rate; Level 3: above 20% growth control rate; Level 2: 5%-20% growth control rate; Level 1: below 5% growth control rate; settings: 250 g/ha of the active substance; 4 weeks after treatment; ALS inhibitor resistant
# Procedure, shortened: (§2)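 Greenhouse post-emergence test. Weeds were treated at the 4 leaf stage, 2-3 weeks after sowing, and cultured for 4 weeks before fresh weight control rate was determined.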
# [4] = system: corn gromwell; assay: as above; set-up: key: Level 10: completely dead; Level 9: above 95% growth control rate; Level 8: above 90% growth control rate; Level 7: above 80% growth control rate; Level 6: above 70% growth control rate; Level 5: above 60% growth control rate; Level 4: above 50% growth control rate; Level 3: above 20% growth control rate; Level 2: 5%-20% growth control rate; Level 1: below 5% growth control rate; settings: 250 g/ha of the active substance; 4 weeks after treatment; ALS inhibitor resistant
# Procedure, shortened: as §2
# [5] = system: chickweed; assay: as above; set-up: key: Level 10: completely dead; Level 9: above 95% growth control rate; Level 8: above 90% growth control rate; Level 7: above 80% growth control rate; Level 6: above 70% growth control rate; Level 5: above 60% growth control rate; Level 4: above 50% growth control rate; Level 3: above 20% growth control rate; Level 2: 5%-20% growth control rate; Level 1: below 5% growth control rate; settings: 250 g/ha of the active substance; 4 weeks after treatment; ALS inhibitor resistant
# Procedure, shortened: as §2
# [6] = system: flixweed; assay: as above; set-up: key: Level 10: completely dead; Level 9: above 95% growth control rate; Level 8: above 90% growth control rate; Level 7: above 80% growth control rate; Level 6: above 70% growth control rate; Level 5: above 60% growth control rate; Level 4: above 50% growth control rate; Level 3: above 20% growth control rate; Level 2: 5%-20% growth control rate; Level 1: below 5% growth control rate; settings: 250 g/ha of the active substance; 4 weeks after treatment; ALS inhibitor resistant
# Procedure, shortened: as §2
# [7] = system: crab grass; assay: weed control effect in post-emergence stage (Table 1); set-up: key: Level 10: completely dead; Level 9: above 95% growth control rate; Level 8: above 90% growth control rate; Level 7: above 80% growth control rate; Level 6: above 70% growth control rate; Level 5: above 60% growth control rate; Level 4: above 50% growth control rate; Level 3: above 20% growth control rate; Level 2: 5%-20% growth control rate; Level 1: below 5% growth control rate; settings: post-emergence spray at 4-5 leaf stage, 250 g/ha active ingredient with 450 kg/ha water, rated after 3 weeks in greenhouse
# Procedure, shortened: as §1
# [8] = system: echinochloa; assay: as above; set-up: key: Level 10: completely dead; Level 9: above 95% growth control rate; Level 8: above 90% growth control rate; Level 7: above 80% growth control rate; Level 6: above 70% growth control rate; Level 5: above 60% growth control rate; Level 4: above 50% growth control rate; Level 3: above 20% growth control rate; Level 2: 5%-20% growth control rate; Level 1: below 5% growth control rate; settings: post-emergence spray at 4-5 leaf stage, 250 g/ha active ingredient with 450 kg/ha water, rated after 3 weeks in greenhouse
# Procedure, shortened: as §1
# [9] = system: bidens bipinnata; assay: as above; set-up: key: Level 10: completely dead; Level 9: above 95% growth control rate; Level 8: above 90% growth control rate; Level 7: above 80% growth control rate; Level 6: above 70% growth control rate; Level 5: above 60% growth control rate; Level 4: above 50% growth control rate; Level 3: above 20% growth control rate; Level 2: 5%-20% growth control rate; Level 1: below 5% growth control rate; settings: post-emergence spray at 4-5 leaf stage, 250 g/ha active ingredient with 450 kg/ha water, rated after 3 weeks in greenhouse
# Procedure, shortened: as §1
# [10] = system: rorippa indica; assay: as above; set-up: key: Level 10: completely dead; Level 9: above 95% growth control rate; Level 8: above 90% growth control rate; Level 7: above 80% growth control rate; Level 6: above 70% growth control rate; Level 5: above 60% growth control rate; Level 4: above 50% growth control rate; Level 3: above 20% growth control rate; Level 2: 5%-20% growth control rate; Level 1: below 5% growth control rate; settings: post-emergence spray at 4-5 leaf stage, 250 g/ha active ingredient with 450 kg/ha water, rated after 3 weeks in greenhouse
# Procedure, shortened: as §1
# [11] = system: Indian mallow; assay: as above; set-up: key: Level 10: completely dead; Level 9: above 95% growth control rate; Level 8: above 90% growth control rate; Level 7: above 80% growth control rate; Level 6: above 70% growth control rate; Level 5: above 60% growth control rate; Level 4: above 50% growth control rate; Level 3: above 20% growth control rate; Level 2: 5%-20% growth control rate; Level 1: below 5% growth control rate; settings: post-emergence spray at 4-5 leaf stage, 250 g/ha active ingredient with 450 kg/ha water, rated after 3 weeks in greenhouse
# Procedure, shortened: as §1
# [12] = system: foxtail; assay: as above; set-up: key: Level 10: completely dead; Level 9: above 95% growth control rate; Level 8: above 90% growth control rate; Level 7: above 80% growth control rate; Level 6: above 70% growth control rate; Level 5: above 60% growth control rate; Level 4: above 50% growth control rate; Level 3: above 20% growth control rate; Level 2: 5%-20% growth control rate; Level 1: below 5% growth control rate; settings: post-emergence spray at 4-5 leaf stage, 250 g/ha active ingredient with 450 kg/ha water, rated after 3 weeks in greenhouse
# Procedure, shortened: as §1
# [13] = system: wheat; assay: post-emergence stage experiment, crop (Table 1); settings: post-emergence spray at 4-5 leaf stage, 250 g/ha active ingredient with 450 kg/ha water, rated after 3 weeks in greenhouse
# Procedure, shortened: as §1
# [14] = system: corn; assay: post-emergence stage experiment, crop (Table 1); settings: post-emergence spray at 4-5 leaf stage, 250 g/ha active ingredient with 450 kg/ha water, rated after 3 weeks in greenhouse
# Procedure, shortened: as §1
Compound,"effect on crop, Rice (level) [1]","Wheat (activity level, crop damage) [2]",shepherd's purse weed controlling effect (activity level) [3],corn gromwell weed controlling effect (activity level) [4],chickweed weed controlling effect (activity level) [5],flixweed weed controlling effect (activity level) [6],"weed control effect, Crab grass (level) [7]","weed control effect, Echinochloa (level) [8]","weed control effect, Bidens bipinnata (level) [9]","weed control effect, Rorippa indica (level) [10]","weed control effect, Indian mallow (level) [11]","weed control effect, Green foxtail (level) [12]","effect on crop, Wheat (level) [13]","effect on crop, Corn (level) [14]"
CCc1nn(C)c(O)c1C(=O)c1ccc(C(F)(F)F)c(N2CCCCCC2=O)c1Cl [Compound 120],5 (Level 5: above 60% growth control rate),1 (Level 1: below 5% growth control rate),10,10,10,10,1 (Level 1: below 5% growth control rate),10,4 (Level 4: above 50% growth control rate),10,4 (Level 4: above 50% growth control rate),7 (Level 7: above 80% growth control rate),1 (Level 1: below 5% growth control rate),1 (Level 1: below 5% growth control rate)
CCc1nn(C)c(OC(=O)c2cn(C)nc2C)c1C(=O)c1ccc(C(F)(F)F)c(N2CCCCCC2=O)c1Cl [Compound 121],6 (Level 6: above 70% growth control rate),1 (Level 1: below 5% growth control rate),10,10,10,10,4 (Level 4: above 50% growth control rate),10,3 (Level 3: above 20% growth control rate),10,5 (Level 5: above 60% growth control rate),9 (Level 9: above 95% growth control rate),1 (Level 1: below 5% growth control rate),1 (Level 1: below 5% growth control rate)
CCc1nn(C)c(OC(=O)c2cn(C)nc2C)c1C(=O)c1ccc(C(F)(F)F)c(-n2cccn2)c1Cl [Compound 131],10,0,10,10,10,10,3 (Level 3: above 20% growth control rate),10,10,10,10,10,0,4 (Level 4: above 50% growth control rate)
CCn1nc(C2CC2)c(C(=O)c2ccc(C(F)(F)F)c(-n3cccn3)c2Cl)c1O [Compound 134],10,1 (Level 1: below 5% growth control rate),10,10,10,10,2 (Level 2: 5%-20% growth control rate),6 (Level 6: above 70% growth control rate),9 (Level 9: above 95% growth control rate),10,10,10,1 (Level 1: below 5% growth control rate),3 (Level 3: above 20% growth control rate)
CCn1nc(C)c(C(=O)c2ccc(C(F)(F)F)c(-n3cc(C)cn3)c2Cl)c1O [Compound 138],7 (Level 7: above 80% growth control rate),1 (Level 1: below 5% growth control rate),10,10,10,10,5 (Level 5: above 60% growth control rate),10,5 (Level 5: above 60% growth control rate),10,0,10,1 (Level 1: below 5% growth control rate),2 (Level 2: 5%-20% growth control rate)
CCc1nn(C)c(O)c1C(=O)c1ccc(C(F)(F)F)c(-n2cc(C)cn2)c1Cl [Compound 140],10,0,10,10,10,10,1 (Level 1: below 5% growth control rate),8 (Level 8: above 90% growth control rate),8 (Level 8: above 90% growth control rate),10,10,7 (Level 7: above 80% growth control rate),0,0
CCc1nn(C)c(OC(=O)c2cn(C)nc2C)c1C(=O)c1ccc(C(F)(F)F)c(-n2cc(C)cn2)c1Cl [Compound 141],10,1 (Level 1: below 5% growth control rate),10,10,10,10,3 (Level 3: above 20% growth control rate),9 (Level 9: above 95% growth control rate),7 (Level 7: above 80% growth control rate),10,9 (Level 9: above 95% growth control rate),7 (Level 7: above 80% growth control rate),1 (Level 1: below 5% growth control rate),0
